Laboratory results published in the supplement of paper PMC10307832.

How the values were obtained:
Test in all cases: relative viability (nuclei count vs DMSO), 5 days (fraction); higher = more cells survive
[1] = compound: CN(C)C[C@@H]1CCn2cc(c3ccccc32)C2=C(C(=O)NC2=O)c2cn(c3ccccc23)CCO1 [Ruboxistaurin] + CS(=O)(=O)CCNCc1ccc(-c2ccc3ncnc(Nc4ccc(OCc5cccc(F)c5)c(Cl)c4)c3c2)o1 [Lapatinib] (partner 2 µM)
Method in brief: (§1)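 Lung cancer cell lines were seeded in 1536-well plates and dosed by pin tool the next day, with either a single drug or a fixed anchor-drug dose combined with five library-drug doses (not always all listed) spaced in √10 steps. Five days later, one step fixed the cells and stained their nuclei (final 0.05% Triton X-100, 1% formaldehyde, 1 ug/ml Hoechst), and nuclei were counted on 4× images. Relative viability is the nuclei count in treated wells divided by the count in vehicle wells, and each value is the median of duplicate plates.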

[2] = compound: CN(C)C[C@@H]1CCn2cc(c3ccccc32)C2=C(C(=O)NC2=O)c2cn(c3ccccc23)CCO1 [Ruboxistaurin] + CS(=O)(=O)N1CCN(Cc2cc3nc(-c4cccc5[nH]ncc45)nc(N4CCOCC4)c3s2)CC1 [Pictilisib] (partner 1 µM)
Method in brief: as §1

[3] = compound: CN(C)C[C@@H]1CCn2cc(c3ccccc32)C2=C(C(=O)NC2=O)c2cn(c3ccccc23)CCO1 [Ruboxistaurin] + Cc1nc(NC(=O)N2CCC[C@H]2C(N)=O)sc1-c1ccnc(C(C)(C)C(F)(F)F)c1 [Alpelisib] (partner 2 µM)
Method in brief: as §1

[4] = compound: CN(C)C[C@@H]1CCn2cc(c3ccccc32)C2=C(C(=O)NC2=O)c2cn(c3ccccc23)CCO1 [Ruboxistaurin] + Cc1nc(Nc2ncc(C(=O)Nc3c(C)cccc3Cl)s2)cc(N2CCN(CCO)CC2)n1 [Dasatinib] (partner 0.075 µM)
Method in brief: as §1

[5] = compound: CN(C)C[C@@H]1CCn2cc(c3ccccc32)C2=C(C(=O)NC2=O)c2cn(c3ccccc23)CCO1 [Ruboxistaurin] + N=C(N)NC(=N)NCCc1ccccc1 [Phenformin] (partner 250 µM)
Method in brief: as §1

Row | Cell Line | relative viability ([1]; first compound 0.08 µM) | relative viability ([1]; first compound 0.8 µM) | relative viability ([1]; first compound 2.53 µM) | relative viability ([1]; first compound 8 µM) | relative viability ([2]; first compound 0.08 µM) | relative viability ([2]; first compound 0.8 µM) | relative viability ([2]; first compound 2.53 µM) | relative viability ([2]; first compound 8 µM) | relative viability ([3]; first compound 0.08 µM) | relative viability ([3]; first compound 0.8 µM) | relative viability ([3]; first compound 2.53 µM) | relative viability ([3]; first compound 8 µM) | relative viability ([4]; first compound 0.08 µM) | relative viability ([4]; first compound 0.8 µM) | relative viability ([4]; first compound 2.53 µM) | relative viability ([4]; first compound 8 µM) | relative viability ([5]; first compound 0.08 µM) | relative viability ([5]; first compound 0.8 µM) | relative viability ([5]; first compound 2.53 µM) | relative viability ([5]; first compound 8 µM)
1 | NCI-H358 | 0.479 | 0.408 | 0.421 | 0.406 | 0.326 | 0.297 | 0.3 | 0.235 | 0.927 | 0.666 | 0.75 | 0.424 | 0.177 | 0.149 | 0.149 | 0.148 | 0.32 | 0.255 | 0.293 | 0.263
2 | NCI-H460 | 1.03 | 0.966 | 1.02 | 1.01 | 0.378 | 0.256 | 0.371 | 0.325 | 0.398 | 0.324 | 0.26 | 0.137 | 0.552 | 0.35 | 0.602 | 0.327 | 0.535 | 0.497 | 0.533 | 0.485
3 | NCI-H520 | 0.904 | 0.772 | 0.867 | 0.864 | 0.324 | 0.264 | 0.236 | 0.208 | 0.976 | 0.789 | 1.01 | 0.822 | 0.195 | 0.157 | 0.176 | 0.129 | 0.766 | 0.54 | 0.599 | 0.393
4 | NCI-H596 | 1.08 | 0.965 | 1.04 | 0.848 | 0.472 | 0.352 | 0.374 | 0.346 | 0.494 | 0.461 | 0.502 | 0.414 | 0.65 | 0.488 | 0.63 | 0.547 | 0.844 | 0.77 | 0.841 | 0.722
5 | NCI-H647 | 1.06 | 0.97 | 1.08 | 0.815 | 0.53 | 0.37 | 0.417 | 0.258 | 1.2 | 0.995 | 1.06 | 0.899 | 0.185 | 0.127 | 0.149 | 0.154 | 0.656 | 0.483 | 0.599 | 0.409
6 | NCI-H650 | 1.22 | 0.764 | 1.38 | 0.491 | 1.15 | 0.831 | 0.848 | 0.808 | 1.17 | 0.888 | 1.12 | 1.12 | 0.5 | 0.384 | 0.516 | 0.433 | 0.51 | 0.452 | 0.488 | 0.464
7 | NCI-H661 | 0.593 | 0.451 | 0.639 | 0.623 | 0.463 | 0.499 | 0.493 | 0.422 | 0.982 | 0.696 | 0.902 | 0.567 | 0.982 | 0.776 | 1.01 | 1.04 | 0.253 | 0.268 | 0.297 | 0.29
8 | NCI-H727 | 1.09 | 0.552 | 0.804 | 0.602 | 0.563 | 0.244 | 0.433 | 0.284 | 0.543 | 0.485 | 0.527 | 0.368 | 0.474 | – | 0.296 | 0.324 | 0.565 | – | 0.401 | 0.474
9 | NCI-H838 | 1.07 | 0.813 | 0.929 | 0.875 | 0.468 | 0.376 | 0.371 | 0.383 | 1.13 | 0.903 | 0.966 | 0.852 | 0.327 | 0.209 | 0.286 | 0.326 | 0.628 | 0.467 | 0.592 | 0.454
10 | NCI-H1355 | 1.06 | 0.916 | 0.933 | 0.814 | 0.473 | 0.364 | 0.309 | 0.276 | 0.868 | 0.68 | 0.827 | 0.667 | 0.774 | 0.614 | 0.638 | 0.464 | 0.472 | 0.39 | 0.468 | 0.451
11 | NCI-H1395 | 1.01 | 1.06 | 1.2 | 0.879 | 0.635 | 0.611 | 0.713 | 0.518 | 1.06 | 0.944 | 1.12 | 0.931 | 0.444 | 0.427 | 0.386 | 0.372 | 0.502 | 0.415 | 0.525 | 0.498
12 | NCI-H1437 | 0.934 | 0.675 | 0.751 | 0.819 | 0.488 | 0.388 | 0.383 | 0.305 | 1.12 | 0.868 | 1.03 | 1.02 | 0.438 | 0.367 | 0.326 | 0.392 | 0.328 | 0.278 | 0.298 | 0.322
13 | NCI-H1563 | 1.06 | 0.945 | 1.04 | 0.952 | 0.626 | 0.662 | 0.601 | 0.618 | 0.972 | 0.867 | 1.05 | 0.849 | 0.499 | 0.502 | 0.465 | 0.404 | 0.67 | 0.654 | 0.702 | 0.693
